In PubChem BioAssay AID1259407 (Chemical Carcinogenesis Research Information System (CCRIS), 2018):
Calls of active or inactive are those of the source. No rule for the calls is given here.

System: CCRIS mutagenicity, Ames/micronucleus/aberration tests
Assay: CCRIS mutagenicity studies
[1] = Test System: AMES SALMONELLA TYPHIMURIUM, Strain/Indicator: TA98, Metabolic Activation: NONE, Method: STANDARD PLATE
[2] = Test System: AMES SALMONELLA TYPHIMURIUM, Strain/Indicator: TA100, Metabolic Activation: NONE, Method: STANDARD PLATE
[3] = Test System: AMES SALMONELLA TYPHIMURIUM, Strain/Indicator: TA98, Metabolic Activation: NONE, Method: PREINCUBATION
[4] = Test System: AMES SALMONELLA TYPHIMURIUM, Strain/Indicator: TA100, Metabolic Activation: NONE, Method: PREINCUBATION

In the case of `OCCNc1ccc(N=Nc2ccc(NCCO)cc2)cc1`, the mutagenic call (Test System: AMES SALMONELLA TYPHIMURIUM, Strain/Indicator: TA98, Metabolic Activation: HAMSTER, LIVER, S-9, AROCLOR 1254, Method: STANDARD PLATE) is reported as “active; positive”, the mutagenic call [1] is reported as “inactive; negative” and the mutagenic call (Test System: AMES SALMONELLA TYPHIMURIUM, Strain/Indicator: TA98, Metabolic Activation: RAT, LIVER, S-9, AROCLOR 1254, Method: PREINCUBATION) is reported as “active; positive”. The mutagenic call (Test System: AMES SALMONELLA TYPHIMURIUM, Strain/Indicator: TA98, Metabolic Activation: RAT, LIVER, S-9, AROCLOR 1254, Method: STANDARD PLATE) was “active; positive”, the mutagenic call [2] was “inactive; negative” and the mutagenic call (Test System: AMES SALMONELLA TYPHIMURIUM, Strain/Indicator: TA100, Metabolic Activation: RAT, LIVER, S-9, AROCLOR 1254, Method: STANDARD PLATE) was “inactive; negative”. The mutagenic call (Test System: AMES SALMONELLA TYPHIMURIUM, Strain/Indicator: TA1535, Metabolic Activation: NONE, Method: STANDARD PLATE) was “inactive; negative”, the mutagenic call (Test System: AMES SALMONELLA TYPHIMURIUM, Strain/Indicator: TA1535, Metabolic Activation: RAT, LIVER, S-9, AROCLOR 1254, Method: STANDARD PLATE) was “inactive; negative” and the mutagenic call (Test System: AMES SALMONELLA TYPHIMURIUM, Strain/Indicator: TA1537, Metabolic Activation: NONE, Method: STANDARD PLATE) was “inactive; negative”. The mutagenic call (Test System: AMES SALMONELLA TYPHIMURIUM, Strain/Indicator: TA1537, Metabolic Activation: RAT, LIVER, S-9, AROCLOR 1254, Method: STANDARD PLATE) was “inactive; negative”, the mutagenic call (Test System: AMES SALMONELLA TYPHIMURIUM, Strain/Indicator: TA1538, Metabolic Activation: NONE, Method: STANDARD PLATE) was “inactive; negative” and the mutagenic call (Test System: AMES SALMONELLA TYPHIMURIUM, Strain/Indicator: TA1538, Metabolic Activation: RAT, LIVER, S-9, AROCLOR 1254, Method: STANDARD PLATE) was “active; positive”.

For `O=C1C=Cc2ccc3c4c(ccc1c24)C=CC3=O`, the mutagenic call (Test System: AMES SALMONELLA TYPHIMURIUM, Strain/Indicator: TA97, Metabolic Activation: NONE, Method: STANDARD PLATE) was “active; positive”, the mutagenic call (Test System: AMES SALMONELLA TYPHIMURIUM, Strain/Indicator: TA97, Metabolic Activation: RAT, LIVER, S-9, PCB, Method: STANDARD PLATE) was “active; positive” and the mutagenic call [1] was “inactive; negative”. The mutagenic call (Test System: AMES SALMONELLA TYPHIMURIUM, Strain/Indicator: TA98, Metabolic Activation: RAT, LIVER, S-9, PCB, Method: STANDARD PLATE) was “inactive; negative”, the mutagenic call [2] was “inactive; negative” and the mutagenic call (Test System: AMES SALMONELLA TYPHIMURIUM, Strain/Indicator: TA100, Metabolic Activation: RAT, LIVER, S-9, PCB, Method: STANDARD PLATE) was “inactive; negative”.

In the case of `CCN1CCNC(=O)C1=O`, the mutagenic call [3] is reported as “inactive; negative”, the mutagenic call (Test System: AMES SALMONELLA TYPHIMURIUM, Strain/Indicator: TA98, Metabolic Activation: RAT LIVER S-9, PHENOBARBITAL AND BETA-NAPHTHOFLAVONE, Method: PREINCUBATION) is reported as “inactive; negative” and the mutagenic call [4] is reported as “inactive; negative”. For the same compound, the mutagenic call (Test System: AMES SALMONELLA TYPHIMURIUM, Strain/Indicator: TA100, Metabolic Activation: RAT LIVER S-9, PHENOBARBITAL AND BETA-NAPHTHOFLAVONE, Method: PREINCUBATION) was “inactive; negative”, the mutagenic call (Test System: AMES SALMONELLA TYPHIMURIUM, Strain/Indicator: TA1535, Metabolic Activation: NONE, Method: PREINCUBATION) was “inactive; negative” and the mutagenic call (Test System: AMES SALMONELLA TYPHIMURIUM, Strain/Indicator: TA1535, Metabolic Activation: RAT LIVER S-9, PHENOBARBITAL AND BETA-NAPHTHOFLAVONE, Method: PREINCUBATION) was “inactive; negative”. The mutagenic call (Test System: AMES SALMONELLA TYPHIMURIUM, Strain/Indicator: TA1537, Metabolic Activation: NONE, Method: PREINCUBATION) was “inactive; negative”, the mutagenic call (Test System: AMES SALMONELLA TYPHIMURIUM, Strain/Indicator: TA1537, Metabolic Activation: RAT LIVER S-9, PHENOBARBITAL AND BETA-NAPHTHOFLAVONE, Method: PREINCUBATION) was “inactive; negative” and the mutagenic call (Test System: AMES SALMONELLA TYPHIMURIUM, Strain/Indicator: TA1538, Metabolic Activation: NONE, Method: PREINCUBATION) was “inactive; negative”. The mutagenic call (Test System: AMES SALMONELLA TYPHIMURIUM, Strain/Indicator: TA1538, Metabolic Activation: RAT LIVER S-9, PHENOBARBITAL AND BETA-NAPHTHOFLAVONE, Method: PREINCUBATION) was “inactive; negative”, the mutagenic call (Test System: E.COLI, Strain/Indicator: WP2UVRA, Metabolic Activation: NONE, Method: PREINCUBATION) was “inactive; negative” and the mutagenic call (Test System: E.COLI, Strain/Indicator: WP2UVRA, Metabolic Activation: RAT LIVER S-9, PHENOBARBITAL AND BETA-NAPHTHOFLAVONE, Method: PREINCUBATION) was “inactive; negative”.

In the case of `c1cnc2cnncc2c1`, the mutagenic call [3] is reported as “inactive; negative”, the mutagenic call (Test System: AMES SALMONELLA TYPHIMURIUM, Strain/Indicator: TA98, Metabolic Activation: RAT, LIVER, S-9, PCB, Method: PREINCUBATION) is reported as “inactive; negative” and the mutagenic call [4] is reported as “inactive; negative”. The mutagenic call (Test System: AMES SALMONELLA TYPHIMURIUM, Strain/Indicator: TA100, Metabolic Activation: RAT, LIVER, S-9, PCB, Method: PREINCUBATION) was “inactive; negative”.
